ChEMBL document CHEMBL1201862, “PubChem BioAssay data set” (2004)
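In this assay, cells in 96-well plates receive the compound at five concentrations for 48 hours. Endpoints are linearly interpolated between the surrounding concentrations. GI50 is the concentration that inhibits growth by half.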 The source made the active and inactive calls. No stated cut-off is given here; in the data, active = GI50 up to about 1.1 µM and inactive = higher.

Tests used:
Assay in all cases: NCI tumour cell line growth inhibition, 48 h
SK-MEL-28 = system: SK-MEL-28
A498 = system: A498
U-251 = system: U-251
HOP-62 = system: HOP-62
NCI-H460 = system: NCI-H460
SNB-19 = system: SNB-19
OVCAR-4 = system: OVCAR-4
OVCAR-5 = system: OVCAR-5
UO-31 = system: UO-31
HCT-15 = system: HCT-15
ACHN = system: ACHN
K562 = system: K562
KM12 = system: KM12
SF-268 = system: SF-268
NCI-H23 = system: NCI-H23
SF-295 = system: SF-295
SNB-75 = system: SNB-75

| SMILES | GI50 (SK-MEL-28) | GI50 (A498) | GI50 (U-251) | GI50 (HOP-62) | GI50 (NCI-H460) | GI50 (SNB-19) | GI50 (OVCAR-4) | GI50 (OVCAR-5) | GI50 (UO-31) | GI50 (HCT-15) [µM] | GI50 (ACHN) | GI50 (K562) | GI50 (KM12) | GI50 (SF-268) | GI50 (NCI-H23) | GI50 (SF-295) | GI50 (SNB-75) |
| --- | --- | --- | --- | --- | --- | --- | --- | --- | --- | --- | --- | --- | --- | --- | --- | --- | --- |
| COc1ccc2nccc(C3OC(=O)N4CCC(=O)CC34)c2c1 (centres undefined) | > 100 µM (inactive) | > 100 µM (inactive) | > 100 µM (inactive) | > 100 µM (inactive) | > 100 µM (inactive) | > 100 µM (inactive) | > 100 µM (inactive) | > 100 µM (inactive) | > 100 µM (inactive) | > 100 | > 100 µM (inactive) | > 100 µM (inactive) | > 100 µM (inactive) | > 100 µM (inactive) | > 100 µM (inactive) | > 100 µM (inactive) |  |
| CC(=O)OC1CCn2nnc(COC(=O)NC(C)C)c21 (centres undefined) | > 100 µM (inactive) |  | > 100 µM (inactive) |  | > 100 µM (inactive) | > 100 µM (inactive) | > 100 µM (inactive) | > 100 µM (inactive) | > 100 µM (inactive) | > 100 | > 100 µM (inactive) | > 100 µM (inactive) | > 100 µM (inactive) |  | > 100 µM (inactive) | > 100 µM (inactive) | > 100 µM (inactive) |
| CC[P+](C)(C)CC | > 100 µM (inactive) |  | > 100 µM (inactive) | > 100 µM (inactive) | > 100 µM (inactive) | > 100 µM (inactive) | > 100 µM (inactive) | > 100 µM (inactive) | > 100 µM (inactive) | > 100 | > 100 µM (inactive) | > 100 µM (inactive) | > 100 µM (inactive) | > 100 µM (inactive) | > 100 µM (inactive) | > 100 µM (inactive) | > 100 µM (inactive) |
| C[C@H](C(=O)C12CC3CC(CC(C3)C1)C2)[C@H](O)c1ccccc1 | 17.6 µM (inactive) |  |  |  | 35.2 µM (inactive) | 61.1 µM (inactive) | 44 µM (inactive) | 17.5 µM (inactive) | 29 µM (inactive) |  | 33.8 µM (inactive) | 39.4 µM (inactive) | 25.5 µM (inactive) | 15.2 µM (inactive) | 36.7 µM (inactive) | 31.9 µM (inactive) | 27 µM (inactive) |
| O=C(O)COc1ccc2c3c1C(=O)CCC3CO2 (centres undefined) | > 100 µM (inactive) | > 100 µM (inactive) | > 100 µM (inactive) | > 100 µM (inactive) | > 100 µM (inactive) | > 100 µM (inactive) | > 100 µM (inactive) | > 100 µM (inactive) | > 100 µM (inactive) | > 100 | > 100 µM (inactive) | > 100 µM (inactive) | > 100 µM (inactive) | > 100 µM (inactive) | > 100 µM (inactive) | > 100 µM (inactive) |  |
| Cc1cc([N+](=O)[O-])c(C)c2c1[nH]c1ccc(/C(CCC3CCCC3)=N\N)cc12 | 16.9 µM (inactive) |  |  | 18.4 µM (inactive) | 18 µM (inactive) | 17.7 µM (inactive) | 27.4 µM (inactive) | > 10 µM (inactive) | 15.3 µM (inactive) | 14.2 | 15.5 µM (inactive) | 10.3 µM (inactive) | 16 µM (inactive) | 18.9 µM (inactive) | 14.7 µM (inactive) | 18.8 µM (inactive) | 22 µM (inactive) |
| O=C1/C=C(/c2ccc(O)cc2)[C@@H](OC2OC(CO)C(O)C(O)C2O)Cc2ccc(O)cc2O1.O=C1/C=C(/c2ccc(O)cc2)[C@H](O)Cc2ccc(O[C@@H]3OC(CO)C(O)C(O)C3O)cc2O1 (some centres undefined) |  | > 100 µM (inactive) | > 100 µM (inactive) | > 100 µM (inactive) | > 100 µM (inactive) | > 100 µM (inactive) | > 100 µM (inactive) | > 100 µM (inactive) | > 100 µM (inactive) | > 100 | > 100 µM (inactive) |  | > 100 µM (inactive) | > 100 µM (inactive) | > 100 µM (inactive) | > 100 µM (inactive) |  |
